# From ChEMBL document CHEMBL4196030, “Enediynes bearing polyfluoroaryl sulfoxide as new antiproliferative agents with dual targeting of microtubules and DNA” (Eur J Med Chem, 2018)
# Active and inactive are the calls of the source. The calls are words filed in the database; no cut-off is given here.
# Legend:
# [1] = tested on: MIA PaCa-2; assay: Antiproliferative activity against human MIAPaCa2 cells after 70 hrs by alamar blue assay; type: functional, cell-based; settings: MIA PaCa-2, 70 h
# [2] = organism: Homo sapiens; assay: Disruption of microtubule network in human MIAPaCa2 cells at 5 times antiproliferative IC50 after 1 to 12 hrs by immunofluorescence assay; type: cell-based
# [3] = Induction of supercoiled plasmid complementary DNA3 cleavage at 100 uM after 1 hr by gel electrophoresis method
# [4] = tested on: A549; assay: Disruption of microtubule network in human A549 cells at 5 times antiproliferative IC50 after 1 to 12 hrs by immunofluorescence assay; type: cell-based
# [5] = tested on: BEAS-2B; assay: Cytotoxicity against human BEAS2B cells assessed as reduction in cell viability after 70 hrs by alamar blue assay; type: cell-based
# [6] = tested on: BEAS-2B; assay: Antiproliferative activity against human BEAS2B cells after 70 hrs by alamar blue assay; type: cell-based
# [7] = tested on: MIA PaCa-2; assay: Cytotoxicity against human MIAPaCa2 cells assessed as reduction in cell viability after 70 hrs by alamar blue assay; type: cell-based; settings: MIA PaCa-2, 70 h
# [8] = Ratio of IC50 for antiproliferative activity against human BEAS2B cells to IC50 for cytotoxicity against human BEAS2B cells; type: cell-based, BEAS-2B; settings: read-out: Ratio IC50
# [9] = tested on: HBL-100; assay: Antiproliferative activity against human HBL100 cells after 70 hrs by alamar blue assay; type: cell-based; settings: HBL-100, 70 h
# [10] = Ratio of IC50 for antiproliferative activity against human MIAPaCa2 cells to IC50 for cytotoxicity against human MIAPaCa2 cells; design: species or system MIA PaCa-2
# [11] = tested on: HUVEC; assay: Cytotoxicity against HUVEC assessed as reduction in cell viability after 70 hrs by alamar blue assay; type: cell-based; settings: Homo sapiens
# [12] = tested on: HUVEC; assay: Antiproliferative activity against HUVEC after 70 hrs by alamar blue assay; type: cell-based; settings: Homo sapiens
# [13] = tested on: A498; assay: Disruption of microtubule network in human A498 cells at 5 times antiproliferative IC50 after 1 to 12 hrs by immunofluorescence assay; type: cell-based
# [14] = Ratio of IC50 for antiproliferative activity against human HBL100 cells to IC50 for cytotoxicity against human HBL100 cells; type: cell-based, HBL-100; settings: read-out: Ratio IC50
# [15] = tested on: HBL-100; assay: Cytotoxicity against human HBL100 cells assessed as reduction in cell viability after 70 hrs by alamar blue assay; type: cell-based; settings: HBL-100, 70 h
# [16] = tested on: MDA-MB-231; assay: Antiproliferative activity against human MDA-MB-231 cells after 70 hrs by alamar blue assay; type: functional, cell-based; settings: MDA-MB-231, 70 h
# [17] = tested on: A549; assay: Antiproliferative activity against human A549 cells preincubated for 4 hrs followed by 0.6 J/cm2 light irradiation for 10 mins and measured after 70 hrs by alamar blue assay; type: functional, cell-based; settings: A549, light or radiation study
# [18] = tested on: MIA PaCa-2; assay: Antiproliferative activity against human MIAPaCa2 cells preincubated for 4 hrs followed by 0.6 J/cm2 light irradiation for 10 mins and measured after 70 hrs by alamar blue assay; type: functional, cell-based; settings: MIA PaCa-2, light or radiation study
# [19] = Selectivity ratio of IC50 for antiproliferative activity against human MIAPaCa2 cells under dark condition to IC50 for antiproliferative activity against human MIAPaCa2 cells under 0.6 J/cm2 light irradiation; type: functional, MIA PaCa-2
# [20] = Antiproliferative activity against human GERL3.0 cells preincubated for 4 hrs followed by 0.6 J/cm2 light irradiation for 10 mins and measured after 70 hrs by alamar blue assay; type: functional, cell-based; settings: light or radiation study
# [21] = tested on: A498; assay: Antiproliferative activity against human A498 cells preincubated for 4 hrs followed by 0.6 J/cm2 light irradiation for 10 mins and measured after 70 hrs by alamar blue assay; type: functional, cell-based; settings: A498, light or radiation study
# [22] = tested on: MOLT-4; assay: Antiproliferative activity against human MOLT4 cells after 70 hrs by alamar blue assay; type: functional, cell-based; settings: MOLT-4, 70 h
# [23] = Selectivity ratio of IC50 for antiproliferative activity against human A498 cells under dark condition to IC50 for antiproliferative activity against human A498 cells under 0.6 J/cm2 light irradiation; type: functional
# [24] = Selectivity ratio of IC50 for antiproliferative activity against human PC3 cells under dark condition to IC50 for antiproliferative activity against human PC3 cells under 0.6 J/cm2 light irradiation; type: functional, PC-3
# [25] = Selectivity ratio of IC50 for antiproliferative activity against human MOLT4 cells under dark condition to IC50 for antiproliferative activity against human MOLT4 cells under 0.6 J/cm2 light irradiation; type: functional, MOLT-4
# [26] = tested on: MDA-MB-231; assay: Antiproliferative activity against human MDA-MB-231 cells preincubated for 4 hrs followed by 0.6 J/cm2 light irradiation for 10 mins and measured after 70 hrs by alamar blue assay; type: functional, cell-based; settings: MDA-MB-231, light or radiation study
# [27] = Selectivity ratio of IC50 for antiproliferative activity against human MDA-MB-231 cells under dark condition to IC50 for antiproliferative activity against human MDA-MB-231 cells under 0.6 J/cm2 light irradiation; type: functional
# [28] = tested on: Caco-2; assay: Antiproliferative activity against human Caco2 cells preincubated for 4 hrs followed by 0.6 J/cm2 light irradiation for 10 mins and measured after 70 hrs by alamar blue assay; type: functional, cell-based; settings: Caco-2, light or radiation study
# [29] = tested on: MOLT-4; assay: Antiproliferative activity against human MOLT4 cells preincubated for 4 hrs followed by 0.6 J/cm2 light irradiation for 10 mins and measured after 70 hrs by alamar blue assay; type: functional, cell-based; settings: MOLT-4, light or radiation study
# [30] = tested on: K562; assay: Antiproliferative activity against human K562 cells after 70 hrs by alamar blue assay; type: functional, cell-based; settings: K562, 70 h
# [31] = tested on: PC-3; assay: Antiproliferative activity against human PC3 cells preincubated for 4 hrs followed by 0.6 J/cm2 light irradiation for 10 mins and measured after 70 hrs by alamar blue assay; type: functional, cell-based; settings: PC-3, light or radiation study
# [32] = Selectivity ratio of IC50 for antiproliferative activity against human A549 cells under dark condition to IC50 for antiproliferative activity against human A549 cells under 0.6 J/cm2 light irradiation; type: functional
# [33] = tested on: MIA PaCa-2; assay: Potency index, ratio of 5-fluorouracil IC50 to compound IC50 for antiproliferative activity against human MIAPaCa2 cells; type: functional
# [34] = tested on: PC-3; assay: Antiproliferative activity against human PC3 cells after 70 hrs by alamar blue assay; type: functional, cell-based; settings: PC-3, 70 h
# [35] = Selectivity ratio of IC50 for antiproliferative activity against human GERL3.0 cells under dark condition to IC50 for antiproliferative activity against human GERL3.0 cells under 0.6 J/cm2 light irradiation; type: functional
# [36] = Selectivity ratio of IC50 for antiproliferative activity against human A431 cells under dark condition to IC50 for antiproliferative activity against human A431 cells under 0.6 J/cm2 light irradiation; type: functional, A-431
# [37] = Selectivity ratio of IC50 for antiproliferative activity against human Caco2 cells under dark condition to IC50 for antiproliferative activity against human Caco2 cells under 0.6 J/cm2 light irradiation; type: functional, Caco-2
# [38] = tested on: A-431; assay: Antiproliferative activity against human A431 cells after 70 hrs by alamar blue assay; type: functional, cell-based; settings: A-431, 70 h
# [39] = Antiproliferative activity against human GERL3.0 cells after 70 hrs by alamar blue assay; type: functional, cell-based
# [40] = tested on: A549; assay: Antiproliferative activity against human A549 cells after 70 hrs by alamar blue assay; type: functional, cell-based; settings: A549, 70 h
# [41] = Induction of supercoiled plasmid complementary DNA3 cleavage at 100 uM after 1 hr under LED light irradiation by gel electrophoresis method
# [42] = tested on: A-431; assay: Antiproliferative activity against human A431 cells preincubated for 4 hrs followed by 0.6 J/cm2 light irradiation for 10 mins and measured after 70 hrs by alamar blue assay; type: functional, cell-based; settings: A-431, light or radiation study
# [43] = tested on: Caco-2; assay: Antiproliferative activity against human Caco2 cells after 70 hrs by alamar blue assay; type: functional, cell-based; settings: Caco-2, 70 h
# [44] = tested on: A498; assay: Antiproliferative activity against human A498 cells after 70 hrs by alamar blue assay; type: functional, cell-based; settings: A498, 70 h
compound,measurement,setting,value
[O-][S+](CC#Cc1ccccc1C#CCO)c1c(F)c(F)c(F)c(F)c1F (stereo not given),IC50,[1],2.6 µM
same,Activity,[2],Active
same,Activity,[3],inactive
same,Activity,[4],Active
[O-][S+](CC#Cc1cc2ccccc2cc1C#CCO)c1c(F)c(F)c(F)c(F)c1F (stereo not given),IC50,[1],4.7 µM
same,Activity,[2],Active
same,Activity,[4],Active
[N-]=[N+]=NCC#Cc1ccccc1C#CC[S+]([O-])c1c(F)c(F)c(F)c(F)c1F (stereo not given),IC50,[1],2.4 µM
Nc1ccn([C@@H]2O[C@H](CO)[C@@H](O)C2(F)F)c(=O)n1 [GEMCITABINE],IC50,[1],0.12 µM
COc1ccc(NS(=O)(=O)c2c(F)c(F)c(F)c(F)c2F)cc1F [BATABULIN],IC50,[5],> 40 µM
same,IC50,[6],12.2 µM
same,IC50,[7],47.3 µM
same,selectivity ratio,[8],> 3.2
same,IC50,[9],0.2 µM
same,Ratio IC50,[10],35.8
same,IC50,[11],16.4 µM
same,IC50,[12],6.3 µM
same,Activity,[13],Active
same,selectivity ratio,[14],> 190
same,IC50,[15],> 40 µM
[O-][S+](CC#Cc1c(C#CCO)sc2ccccc12)c1c(F)c(F)c(F)c(F)c1F (stereo not given),IC50,[1],2.2 µM
COc1cccc2c1C(=O)c1c(O)c3c(c(O)c1C2=O)C[C@@](O)(C(=O)CO)C[C@@H]3O[C@H]1C[C@H](N)[C@H](O)[C@H](C)O1 [DOXORUBICIN],IC50,[5],18.6 µM
same,IC50,[6],2.4 µM
same,IC50,[7],3.1 µM
same,IC50,[9],0.08 µM
same,IC50,[11],0.48 µM
same,IC50,[12],0.15 µM
same,IC50,[15],8.5 µM
[O-][S+](CC#Cc1cccnc1C#CCO)c1c(F)c(F)c(F)c(F)c1F (stereo not given),IC50,[5],19.6 µM
same,IC50,[6],1 µM
same,IC50,[1],0.8 µM
same,Activity,[2],Active
same,IC50,[7],20.5 µM
same,IC50,[16],1.2 µM
same,IC50,[17],0.8 µM
same,selectivity ratio,[8],18.6
same,IC50,[18],0.2 µM
same,Ratio IC50,[19],3.7
same,Activity,[3],inactive
same,IC50,[20],0.6 µM
same,IC50,[21],3.2 µM
same,IC50,[22],0.6 µM
same,IC50,[9],1.4 µM
same,Ratio IC50,[23],1.1
same,Ratio IC50,[24],2.5
same,Ratio IC50,[25],1.6
same,IC50,[26],0.5 µM
same,Ratio IC50,[27],2.2
same,IC50,[28],0.5 µM
same,IC50,[29],0.4 µM
same,IC50,[30],0.7 µM
same,Ratio IC50,[10],25.3
same,IC50,[31],0.5 µM
same,Ratio IC50,[32],2
same,Ratio IC50,[33],6
same,IC50,[11],8.8 µM
same,IC50,[12],0.6 µM
same,IC50,[34],1.4 µM
same,Activity,[13],Active
same,Ratio IC50,[35],1.4
same,Ratio IC50,[36],1.3
same,selectivity ratio,[14],19.3
same,Ratio IC50,[37],2
same,IC50,[38],1.5 µM
same,IC50,[39],0.9 µM
same,IC50,[40],1.6 µM
same,Activity,[41],Active
same,IC50,[42],1.1 µM
same,IC50,[43],1 µM
same,IC50,[44],3.4 µM
same,IC50,[15],27.1 µM
same,Activity,[4],Active
CCCCC(=O)OCC#Cc1ncccc1C#CC[S+]([O-])c1c(F)c(F)c(F)c(F)c1F (stereo not given),IC50,[1],3 µM
same,IC50,[18],0.5 µM
same,Ratio IC50,[19],6
